Drawing on a melting point compilation (Tetko et al.), this text covers melting point for 112 compounds.

In turn, `COc1cccc2c(=O)c3c(n(C)c12)OC(C(C)C)C3` (configuration not stated) returned a melting point of 119 °C.

`Cn1c(/C(C#N)=N/Nc2ccc(Cl)cc2Cl)nc2ccccc21` returned a melting point of 160 °C.

On to `O=C(O)C1Cc2cc(O)ccc2CN1` (racemic), for which the melting point was 256 to 260 °C.

For the compound `CC(=O)Nc1ccc(C=NNC(N)=S)cc1`, the melting point fell in the range of 225 to 230 °C.

For `C=C(C)CCCCC`, the melting point was -90 °C.

Compound `COc1ccc(C(C=O)C=O)cc1` gave a melting point of 178 to 181 °C.

Consider `COC(=O)c1cccc([N+](=O)[O-])c1NC(C)=O`, for which the melting point lay within 120 to 121 °C.

Compound `C#Cc1ccc(C)cc1` showed a melting point of 21 °C.

Consider `Cc1ccc(S(N)(=O)=O)cc1Cl`, for which the melting point was 137 °C.

In the case of `C(=Cc1ccccc1)CN1CCNCC1`, the melting point was 39 to 44 °C.

`N#C/C(=C/c1ccc(Cl)cc1)c1nc(-c2ccccc2)cs1` registered a melting point of 103 to 105 °C.

Take `Cc1cc(C)c2c(=O)n(-c3cccc(C(F)(F)F)c3)c(=O)[nH]c2n1`: the melting point lay within 264 to 266 °C.

As for `O=C(O)c1ccc(Oc2ccccc2)cc1`, the melting point came to 162 °C.

Regarding `CC(C)COC(=O)c1ccc(N)cc1`, the melting point amounted to 64.5 °C.

Take `Cc1nn(C)c(N2CCOCC2)c1C=O`: the melting point fell in the range of 74 to 76 °C.

In turn, `Cc1noc(N)c1C` returned a melting point of 119 to 120 °C.

`CN(C)c1ccc(/C=C2\C(=O)C3CCC(C)(C2=O)C3(C)C)cc1` (configuration not stated): the melting point is 152 to 153 °C.

`CCCCCCCCOc1ccc(NC(=O)c2ccc(C)cc2)cc1` displayed a melting point of 140 to 142 °C.

`O=C(CCl)NCO` gave a melting point of 100 °C.

With `Cc1nc(Cl)c2c3c(sc2n1)CCCC3`, the melting point was 94 to 95 °C.

`COc1cc([N+](=O)[O-])ccc1N1CCCC1` returned a melting point of 60 °C.

The compound `Cc1ccc(Oc2ccc(C)cc2)cc1` had a melting point of 51 °C.

Regarding `Oc1c(Br)ccc2cccnc12`, the melting point was found to be 140 °C.

In the case of `ClCCN(CCCl)c1ccc2ccccc2c1`, the melting point worked out at 55 °C.

In the case of `COC(=O)c1ccc(C)c([N+](=O)[O-])c1`, the melting point turned out to be 51 °C.

Compound `CCCCCCCCCCCCCCc1ccccc1` returned a melting point of 16 °C.

`CCC(=O)CC#N` returned a melting point of 29 °C.

Regarding `O=C(O)CCCCCCCCCCO`, the melting point came to 65.5 °C.

Compound `COc1cc(-c2ccc(N=C=O)c(OC)c2)ccc1N=C=O` returned a melting point of 114 °C.

For `O=C(O)C=CCCl`, the melting point was found to be 83 °C.

For the compound `N#Cc1ccc(O)c([N+](=O)[O-])c1`, the melting point is 143 to 148 °C.

For `O=C1Cc2cccc(Cl)c21`, the melting point amounted to 71 °C.

`OCCN1CCN(c2nc3ccc(Cl)cc3s2)CC1` yielded a melting point of 128 to 130 °C.

As for `Cc1cc(C)c(N=C=S)cc1C`, the melting point was 22 to 24 °C.

For `C[Si](O)(c1ccccc1)c1ccccc1`, the melting point was determined as 167 °C.

As for `CC(C(=O)O)N1C(=O)c2ccccc2C1=O` (configuration not stated), the melting point was found to be 163 °C.

In the case of `NC(=NO)c1ccccc1`, the melting point lay within 75 to 77 °C.

As to `CC(C)(C)c1nnc(NS(=O)(=O)c2ccccc2)s1`, the melting point amounted to 163 °C.

In turn, `BrCOCBr` showed a melting point of -34 °C.

Compound `CC(=O)OCC1OC(n2cnc3c(=O)[nH]c(N)nc32)C(OC(C)=O)C1OC(C)=O` (configuration not stated) registered a melting point of 224 to 233 °C.

`Cc1nc(-c2cccc(CO)c2)no1`: the melting point was 56 to 58 °C.

Regarding `Cc1ccnc(SCC(=O)O)n1`, the melting point is 192 °C.

As for `CSc1nc2[nH]c(Cc3ccccc3)nc(=O)c2n1C`, the melting point was found to be 286 °C.

Compound `O=C(OCCO)c1ccccc1` displayed a melting point of 45 °C.

Compound `Cc1ccc(N)cc1[N+](=O)[O-]` displayed a melting point of 76.5 °C.

`C=C(C)C1CCC2(C)CCC3(C)C(CCC4C5(C)CCC(O)C(C)(C)C5CCC43C)C12` (configuration not stated) had a melting point of 216 °C.

`CN(C)c1ccc2c(c1)Sc1cc(N(C)C)ccc1N2C(=O)c1ccccc1` returned a melting point of 195 °C.

Consider `COC(=O)c1ccc(Cl)cc1N`, for which the melting point worked out at 67 °C.

For `O=C(O)CN1C(=O)c2ccccc2C1=O`, the melting point was in the range of 195 to 198 °C.

`Cc1ccc(S(=O)(=O)OCC2CO2)cc1` (configuration not stated) had a melting point of 45 to 48 °C.

With `c1ccc2c(c1)ccc1c3ccccc3sc21`, the melting point worked out at 189 °C.

`CC1=CC1` registered a melting point of -100 °C.

As for `Cc1ncc(CSSCc2cnc(C)c(O)c2CO)c(CO)c1O`, the melting point is 219 °C.

For the compound `Cc1cccc(C)c1OCC(C)N` (configuration not stated), the melting point came to 204 °C.

As to `Cc1ccc(C(c2ccc(Br)cc2)c2ccc(C)o2)o1`, the melting point was found to be 64 °C.

Consider `CCC(O)CO` (configuration not stated), for which the melting point was -50 °C.

Regarding `CNC(=O)ON=C(SC)C(=O)N(C)C`, the melting point worked out at 101 °C.

On to `O=Cc1nc(-c2ccccc2Cl)c2cc(Cl)ccc2n1`, for which the melting point is 159 to 160 °C.

In turn, `Nc1ccccc1C(=O)Nc1ccccc1` came in with a melting point of 132 °C.

On to `N#CC(Br)c1ccccc1` (configuration not stated), for which the melting point stood at 29 °C.

Compound `O=S(=O)(C[C@@H](COCc1ccccc1)OCc1ccccc1)c1ccccc1` came in with a melting point of 55 to 56 °C.

`O=C(C=Cc1ccc(-c2ccc(Br)cc2)o1)c1ccco1` returned a melting point of 164 to 165 °C.

Compound `NNc1ncnc2sc3c(c12)CCCC3` registered a melting point of 178 to 179 °C.

As for `Cc1oc(C)c(S(=O)(=O)NCc2cccs2)c1C(=O)O`, the melting point fell in the range of 167 to 169 °C.

As for `CSc1nc(-c2ccc(C)cc2)nc(N)c1C#N`, the melting point lay within 213 to 214 °C.

Turning to `COC(=O)C12C=CC(CC1)C1C(=O)OC(=O)C12` (configuration not stated), the melting point was in the range of 116 to 118 °C.

Take `N=C(Nc1ccccc1)c1ccccc1`: the melting point was found to be 119 °C.

`C=CN(C)C(C)=O` showed a melting point of -36 °C.

Regarding `Clc1ccc(Cl)c(-c2nnn[nH]2)c1`, the melting point is 157 °C.

Consider `CCOC(=O)C1=NN(c2ccc(Cl)cc2Cl)C(C)(C(=O)OCC)C1` (configuration not stated), for which the melting point is 51 °C.

`Nc1ccc([N+](=O)[O-])cc1Cl` returned a melting point of 108 °C.

In turn, `C/C(CCc1ccc2c(c1)NC(C)CC2)=N\NC(N)=O` (configuration not stated) returned a melting point of 128 °C.

In turn, `CC(C1=CCC(C(=O)O)C(C)(C)O1)(c1ccccc1)c1ccccc1` (configuration not stated) registered a melting point of 145 °C.

Consider `O=S(=O)(Cl)c1sccc1C1OCCO1`, for which the melting point fell in the range of 93 to 94 °C.

`Cc1nn(-c2ccccc2)nc1C(=O)Cl` yielded a melting point of 104 to 105 °C.

Consider `CCC1(C2=CCCCCC2)C(=O)NC(=O)NC1=O`, for which the melting point came out at 174 °C.

On to `CC(=O)NC1=NC(=O)C(=Cc2coc3ccc(Cl)cc3c2=O)N1C`, for which the melting point was determined as 276 °C.

The compound `CCCF` displayed a melting point of -159 °C.

As for `Cc1nc(-c2cnccn2)sc1C(=O)Cl`, the melting point amounted to 101 °C.

Turning to `OC(c1ccc(F)cc1)(c1cncnc1)c1ccccc1Cl` (configuration not stated), the melting point was 126 °C.

On to `NC(COc1ccc(C2SCCS2)cc1)=NO`, for which the melting point is 113 to 115 °C.

In the case of `CC(C)OC(=O)C(O)(c1ccc(Cl)cc1)c1ccc(Cl)cc1`, the melting point is 73 °C.

Compound `CN(C)CCC=C1c2ccccc2Sc2ccc(Cl)cc21` registered a melting point of 97.5 °C.

The compound `C#CC1(OC(C)=O)CCC2C3CCC4=CC(=O)CCC4C3CCC21C` (configuration not stated) yielded a melting point of 162 °C.

In the case of `Oc1nc(S)c2nc[nH]c2n1`, the melting point turned out to be 300 °C.

In turn, `CC(C)CCC[C@@H](C)[C@H]1CC[C@H]2[C@@H]3CC[C@H]4CC(=O)CC[C@]4(C)[C@H]3CC[C@]12C` came in with a melting point of 128 to 133 °C.

For `Nc1c(Oc2ccccc2)c(Oc2ccccc2)c(N)c2c1C(=O)c1ccccc1C2=O`, the melting point stood at 195 °C.

For the compound `O=Cc1cc(I)ccc1F`, the melting point was found to be 44 °C.

Regarding `COc1ccc(OC)c(C(=O)CBr)c1`, the melting point lay in the range of 83 to 88 °C.

In turn, `Cc1cc(=O)oc2cc(OCC(=O)Cl)ccc12` showed a melting point of 129 °C.

Consider `CCN1CCCC1CNC(=O)c1cc(S(N)(=O)=O)ccc1OC` (configuration not stated), for which the melting point was 178 °C.

`O=C(O)COc1ccc([N+](=O)[O-])cc1` gave a melting point of 182 to 188 °C.

The compound `COc1ccc(NN=C2C(=O)OC(C)(C)OC2=O)cc1` yielded a melting point of 128 °C.

With `COC(=O)CC(=O)c1ccccc1Cl`, the melting point was found to be 25 °C.

`O=C(O)c1ccc(C(F)(F)F)cc1F` registered a melting point of 168 °C.

In turn, `Cc1ccc(C(c2ccc(C)o2)c2cc(I)cc(I)c2O)o1` showed a melting point of 143 °C.

`COc1ccc2c(c1OC)C(=O)OC2C1c2cc3c(cc2CCN1C)OCO3` (configuration not stated): the melting point was determined as 132 °C.

On to `O=[N+]([O-])c1ccccc1N1CSc2nnc(-c3cccnc3)n2C1`, for which the melting point worked out at 159 °C.

`CCOC(=O)CN1CCN(C(=O)C=Cc2cc(OC)c(OC)c(OC)c2)CC1`: the melting point is 96 °C.

Take `NC(=O)C(CO)NC(=O)OCC1c2ccccc2-c2ccccc21` (configuration not stated): the melting point was determined as 155 °C.

`CCNc1ccc2c(C(F)(F)F)cc(=O)oc2c1` yielded a melting point of 158 to 159 °C.

The compound `N=c1oc2ccccc2cc1C(N)=S` came in with a melting point of 254 °C.

On to `O=C(O)c1cccc2nsnc12`, for which the melting point is 198 to 200 °C.

Consider `CC1CC(=O)C(C)(C)C1` (configuration not stated), for which the melting point is -40.6 °C.

Compound `Nc1ncccc1Cl` returned a melting point of 61 °C.

`CC(=O)Nc1c(F)ccc([N+](=O)[O-])c1F` showed a melting point of 148 to 149 °C.

In turn, `CCCCOC(=O)C1=C(C)NC(C)=C(C(=O)OCCCC)C1c1ccco1` displayed a melting point of 87 °C.

Consider `CON(C)C(=O)Nc1ccc(Cl)cc1`, for which the melting point was 81.5 °C.

For `NNC(=O)c1ccc(OCc2ccccc2)cc1`, the melting point was 140 °C.

With `O=C(O)[C@@H]1CCCC[C@H]1C(=O)O` (relative stereo), the melting point was determined as 220 °C.

The compound `Nc1c(C=O)cnn1-c1ccc(Cl)cc1` gave a melting point of 80 °C.

Compound `Clc1ccc(CBr)cc1` displayed a melting point of 49 °C.

As a reminder, the melting point is the temperature, or range, at which the solid turns liquid.
